From the supplement of paper PMC11061612

How the values were obtained:
SN-38 = compound: CCc1c2c(nc3ccc(O)cc13)-c1cc3c(c(=O)n1C2)COC(=O)[C@]3(O)CC [SN-38]; conditions: max 0.3 µM
Summary of the method: (§1)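 Cancer cell lines were dosed for 72 hours (final DMSO typically 0.2%) after 24 hours at 37°C and 5% CO2 in 1536-well plates containing 7.5 μl DMEM/F12 or RPMI with 10% FBS. Viability came from CellTiter-Glo 2.0 luminescence, scaled between blank-well and DMSO-well means, and dose responses were fitted to a two-parameter logistic curve with a non-linear mixed effects model. The single-agent IC50 was obtained from this fit.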

AZD1390 = compound: CC(C)n1c(=O)n(C)c2cnc3cc(F)c(-c4ccc(OCCCN5CCCCC5)nc4)cc3c21 [AZD1390]; conditions: max 0.3 µM
Summary of the method: as §1

Taselisib = compound: Cc1nc(-c2cn3c(n2)-c2ccc(-c4cnn(C(C)(C)C(N)=O)c4)cc2OCC3)n(C(C)C)n1 [Taselisib]; conditions: max 10 µM
Summary of the method: as §1

AZD0156 = compound: CN(C)CCCOc1ccc(-c2ccc3ncc4c(c3c2)n(C2CCOCC2)c(=O)n4C)cn1 [AZD0156]; conditions: max 3 µM
Summary of the method: as §1

Dasatinib = compound: CC1=C(C(=CC=C1)Cl)NC(=O)C2=CN=C(S2)NC3=CC(=NC(=N3)C)N4CCN(CC4)CCO [Dasatinib]; conditions: max 2 µM
Summary of the method: as §1

AZD8186 = compound: C[C@@H](Nc1cc(F)cc(F)c1)c1cc(C(=O)N(C)C)cc2c(=O)cc(N3CCOCC3)oc12 [AZD8186]; conditions: max 3 µM
Summary of the method: as §1

AZD5153 = compound: COc1nnc2ccc(N3CCC(c4ccc(OCCN5CCN(C)C(=O)[C@H]5C)cc4)CC3)nn12 [AZD5153]; conditions: max 1 µM
Summary of the method: as §1

Prexasertib = compound: COc1cccc(OCCCN)c1-c1cc(Nc2cnc(C#N)cn2)n[nH]1 [Prexasertib]; conditions: max 1 µM
Summary of the method: as §1

Alisertib = compound: COc1cc(Nc2ncc3c(n2)-c2ccc(Cl)cc2C(c2c(F)cccc2OC)=NC3)ccc1C(=O)O [Alisertib]; conditions: max 10 µM
Summary of the method: as §1

AZD5991 = compound: Cc1c2c(nn1C)CSCc1cc(n(C)n1)CSc1cc(c3ccccc3c1)OCCCc1c(C(=O)O)n(C)c3c-2c(Cl)ccc13 [AZD5991]; conditions: max 1 µM
Summary of the method: as §1

Lapatinib = compound: CS(=O)(=O)CCNCc1ccc(-c2ccc3ncnc(Nc4ccc(OCc5cccc(F)c5)c(Cl)c4)c3c2)o1 [Lapatinib]; conditions: max 10 µM
Summary of the method: as §1

SG3199 = compound: CC1=CN2[C@@H](C1)C=NC3=CC(=C(C=C3C2=O)OC)OCCCCCOC4=C(C=C5C(=C4)N=C[C@@H]6CC(=CN6C5=O)C)OC [SG3199]; conditions: max 0.001 µM
Summary of the method: as §1

AZD1775 = compound: C=CCn1c(=O)c2cnc(Nc3ccc(N4CCN(C)CC4)cc3)nc2n1-c1cccc(C(C)(C)O)n1 [AZD1775]; conditions: max 3 µM
Summary of the method: as §1

Palbociclib = compound: CC(=O)c1c(C)c2cnc(Nc3ccc(N4CCNCC4)cn3)nc2n(C2CCCC2)c1=O [Palbociclib]; conditions: max 10 µM
Summary of the method: as §1

Crizotinib = compound: C[C@@H](Oc1cc(-c2cnn(C3CCNCC3)c2)cnc1N)c1c(Cl)ccc(F)c1Cl [Crizotinib]; conditions: max 10 µM
Summary of the method: as §1

Gefitinib = compound: COc1cc2ncnc(Nc3ccc(F)c(Cl)c3)c2cc1OCCCN1CCOCC1 [Gefitinib]; conditions: max 10 µM
Summary of the method: as §1

Trametinib = compound: CC(=O)Nc1cccc(-n2c(=O)n(C3CC3)c(=O)c3c(Nc4ccc(I)cc4F)n(C)c(=O)c(C)c32)c1 [Trametinib]; conditions: max 1 µM
Summary of the method: as §1

Savolitinib = compound: C[C@@H](c1ccc2nccn2c1)n1nnc2ncc(-c3cnn(C)c3)nc21 [Savolitinib]; conditions: max 1 µM
Summary of the method: as §1

AZD4320 = compound: CN(CC[C@H](CSC1=CC=CC=C1)NC2=C(C=C(C=C2)S(=O)(=O)NC(=O)C3=CC=C(C=C3)N4CCC(CC4)[C@H](C5=CC=CC=C5C6=CC=C(C=C6)Cl)O)S(=O)(=O)C(F)(F)F)CCO [AZD4320]; conditions: max 1 µM
Summary of the method: as §1

AZD7648 = compound: Cc1cc2ncnn2cc1Nc1ncc2c(n1)n(C1CCOCC1)c(=O)n2C [AZD7648]; conditions: max 10 µM
Summary of the method: as §1

AZD2811 = compound: CCN(CCO)CCCOc1ccc2c(Nc3cc(CC(=O)Nc4cccc(F)c4)[nH]n3)ncnc2c1 [AZD2811]; conditions: max 1 µM
Summary of the method: as §1

Venetoclax = compound: CC1(C)CCC(CN2CCN(c3ccc(C(=O)NS(=O)(=O)c4ccc(NCC5CCOCC5)c([N+](=O)[O-])c4)c(Oc4cnc5[nH]ccc5c4)c3)CC2)=C(c2ccc(Cl)cc2)C1 [Venetoclax]; conditions: max 1 µM
Summary of the method: as §1

AZD6738 = compound: C[C@@H]1COCCN1C2=NC(=NC(=C2)C3(CC3)[S@](=N)(=O)C)C4=C5C=CNC5=NC=C4 [AZD6738]; conditions: max 10 µM
Summary of the method: as §1

Doxorubicin = compound: COc1cccc2c1C(=O)c1c(O)c3c(c(O)c1C2=O)C[C@@](O)(C(=O)CO)C[C@@H]3O[C@H]1C[C@H](N)[C@H](O)[C@H](C)O1 [Doxorubicin]; conditions: max 1 µM
Summary of the method: as §1

Capivasertib = compound: C1CN(CCC1(C(=O)N[C@@H](CCO)C2=CC=C(C=C2)Cl)N)C3=NC=NC4=C3C=CN4 [Capivasertib]; conditions: max 10 µM
Summary of the method: as §1

Olaparib = compound: O=C(c1cc(Cc2n[nH]c(=O)c3ccccc23)ccc1F)N1CCN(C(=O)C2CC2)CC1 [Olaparib]; conditions: max 10 µM
Summary of the method: as §1

Selumetinib = compound: Cn1cnc2c(F)c(Nc3ccc(Br)cc3Cl)c(C(=O)NOCCO)cc21 [Selumetinib]; conditions: max 10 µM
Summary of the method: as §1

MK-2206 = compound: NC1(c2ccc(-c3nc4ccn5c(=O)[nH]nc5c4cc3-c3ccccc3)cc2)CCC1 [MK-2206]; conditions: max 10 µM
Summary of the method: as §1

Row | Cell Line | IC50, cell viability 72 h (SN-38) | IC50, cell viability 72 h (AZD1390) | IC50, cell viability 72 h (Taselisib) | IC50, cell viability 72 h (AZD0156) | IC50, cell viability 72 h (Dasatinib) | IC50, cell viability 72 h (AZD8186) | IC50, cell viability 72 h (AZD5153) | IC50, cell viability 72 h (Prexasertib) | IC50, cell viability 72 h (Alisertib) | IC50, cell viability 72 h (AZD5991) | IC50, cell viability 72 h (Lapatinib) | IC50, cell viability 72 h (SG3199) | IC50, cell viability 72 h (AZD1775) | IC50, cell viability 72 h (Palbociclib) | IC50, cell viability 72 h (Crizotinib) | IC50, cell viability 72 h (Gefitinib) | IC50, cell viability 72 h (Trametinib) | IC50, cell viability 72 h (Savolitinib) | IC50, cell viability 72 h (AZD4320) | IC50, cell viability 72 h (AZD7648) | IC50, cell viability 72 h (AZD2811) | IC50, cell viability 72 h (Venetoclax) | IC50, cell viability 72 h (AZD6738) | IC50, cell viability 72 h (Doxorubicin) | IC50, cell viability 72 h (Capivasertib) | IC50, cell viability 72 h (Olaparib) | IC50, cell viability 72 h (Selumetinib) | IC50, cell viability 72 h (MK-2206)
1 | LB771-HNC (Head and Neck Carcinoma) | > 300 nM | > 300 nM | 2670 nM | > 3000 nM | > 2000 nM | > 3000 nM | > 1000 nM | 367 nM | 6.25 µM | > 1000 nM | > 10 µM | > 1 nM | 742 nM | > 10 µM | > 10 µM | > 10 µM | > 1000 nM | > 1000 nM | > 1000 nM | > 10 µM | > 1000 nM | > 1000 nM | > 10 µM | > 1000 nM | > 10 µM | > 10 µM | > 10 µM | 
2 | MHH-PREB-1 (B-Cell Non-Hodgkin's Lymphoma) | 58.4 nM | > 300 nM | > 10000 nM | > 3000 nM | > 2000 nM | > 3000 nM | 756 nM | 8.91 nM | > 10 µM | > 1000 nM | > 10 µM | > 1 nM | 935 nM | > 10 µM | 8.08 µM | > 10 µM | > 1000 nM | > 1000 nM | > 1000 nM | > 10 µM | > 1000 nM | > 1000 nM | 2.08 µM | 317 nM | > 10 µM | > 10 µM | > 10 µM | 
3 | NCI-H747 (Colorectal Carcinoma) | > 300 nM | > 300 nM | 2380 nM | > 3000 nM | 542 nM | > 3000 nM | 101 nM | > 1000 nM | > 10 µM | > 1000 nM | > 10 µM | > 1 nM | 2510 nM | > 10 µM | > 10 µM | > 10 µM | 5.4 nM | > 1000 nM | > 1000 nM | > 10 µM | > 1000 nM | > 1000 nM | > 10 µM | > 1000 nM | 4.66 µM | > 10 µM | 0.309 µM | 2200 nM
4 | OVCAR-8 (Ovarian Carcinoma) | 18.7 nM | > 300 nM | > 10000 nM | > 3000 nM | 1540 nM | > 3000 nM | 198 nM | 13.4 nM | 7.63 µM | > 1000 nM | > 10 µM | > 1 nM | 1370 nM | > 10 µM | > 10 µM | > 10 µM | > 1000 nM | > 1000 nM | > 1000 nM | > 10 µM | > 1000 nM | > 1000 nM | 6.14 µM | 257 nM | > 10 µM | > 10 µM | > 10 µM | 
5 | SW626 (Colorectal Carcinoma) | > 300 nM | > 300 nM | > 10000 nM | > 3000 nM | > 2000 nM | > 3000 nM | 150 nM | 127 nM | > 10 µM | > 1000 nM | > 10 µM | > 1 nM | 1490 nM | > 10 µM | > 10 µM | > 10 µM | 111 nM | > 1000 nM | > 1000 nM | > 10 µM | > 1000 nM | > 1000 nM | > 10 µM | > 1000 nM | > 10 µM | > 10 µM | 2.81 µM | 
6 | TE-4 (Esophageal Squamous Cell Carcinoma) | > 300 nM | > 300 nM | 381 nM | > 3000 nM | > 2000 nM | > 3000 nM | > 1000 nM | 334 nM | > 10 µM | > 1000 nM | 0.264 µM | > 1 nM | 1020 nM | > 10 µM | > 10 µM | 0.99 µM | 125 nM | > 1000 nM | > 1000 nM | > 10 µM | > 1000 nM | > 1000 nM | > 10 µM | > 1000 nM | 2.91 µM | > 10 µM | > 10 µM | 
7 | UMC-11 (Other Solid Carcinomas) | > 300 nM | > 300 nM | > 10000 nM | > 3000 nM | > 2000 nM | > 3000 nM | 289 nM | 57.5 nM | 1.21 µM | > 1000 nM | > 10 µM | > 1 nM | > 3000 nM | > 10 µM | 5.91 µM | > 10 µM | > 1000 nM | > 1000 nM | > 1000 nM | > 10 µM | 103 nM | > 1000 nM | > 10 µM | > 1000 nM | > 10 µM | > 10 µM | > 10 µM | 
